Reference: patent publication US20250127790A1, “COMBINATION THERAPY USING VPS34 INHIBITORS” (Deciphera Pharmaceuticals, LLC, priority 2021, published 2025)

Assays:
[1] = test system: A-498 renal cell carcinoma cells; assay: Western blot, STING pathway proteins with siRNA knockdown, A-498 cells; format: cell-based; details: 24 h; for CGAS level / STING level / p-IRF3 level / p-STAT1 level / p-TKB1 level / p-IRF3 and p-STAT1 levels with siRNA knockdown of CGAS / p-TKB1 level with siRNA knockdown of CGAS / p-IRF3 and p-STAT1 levels with siRNA knockdown of STING / p-TBK1 level with siRNA knockdown of STING: 2 μM; for CGAS level / STING level / p-IRF3 level / p-STAT1 level / p-TKB1 level: vs DMSO alone; for p-IRF3 and p-STAT1 levels with siRNA knockdown of CGAS / p-TKB1 level with siRNA knockdown of CGAS: siCGAS; for p-IRF3 and p-STAT1 levels with siRNA knockdown of CGAS / p-TKB1 level with siRNA knockdown of CGAS / p-IRF3 and p-STAT1 levels with siRNA knockdown of STING / p-TBK1 level with siRNA knockdown of STING: vs compound alone; for p-IRF3 and p-STAT1 levels with siRNA knockdown of STING / p-TBK1 level with siRNA knockdown of STING: siSTING; for STING level with siRNA knockdown of TBK1 / CGAS level with siRNA knockdown of TBK1: siTBK1, 2 μM; for CGAS level with siRNA knockdown of TBK1: vs DMSO
Experimental: A-498 cells were transfected with scrambled siRNA control (siSCR) or siRNA targeting TBK1 (siTBK1), STING (siSTING) or CGAS (siCGAS). After 48 h cells were treated with DMSO or 2 μM of VPS34 inhibitor (Compound 1 or Compound 2) for 24 h. A-498 cells were washed in PBS and lysed in RIPA buffer (50 mM Tris HCl pH=7.4, 150 mM NaCl, 1% Triton X-100, 0.5% Na-deoxycholate, 0.1% SDS) containing protease inhibitor cocktail (#11836170001, Roche), and phosphatase inhibitor (#11836170001, Roche) for 10 min at 4° C. After centrifugation at 15000 rpm for 10 min at 4° C., the supernatant was obtained, and protein concentration was quantified using BCA assay (#23225, Thermo Fisher). Equal amounts were mixed with 0.1 M DTT and LDS Sample Buffer (#84788, Thermo Fisher), heated for 5 min at 90° C. before loading onto 4-12% Bis-Tris gels. Proteins were transferred to nitrocellulose membranes. Membranes were blocked in 5% non-fat dry milk in TBS with 0.05% Tween (TBS-T) for 1 h at RT, washed in TBS-T, and probed with primary antibodies shaking overnight at 4° C. After washing in TBS-T, membranes were incubated with IRDye 800CW goat anti-rabbit or IRDye 680RD donkey anti-mouse IgG (H+L) (#926-32211 and #926-68072, respectively, LI-COR, 1:10,000 dilution) secondary antibody in Intercept blocking buffer (#927-60001, LI-COR) for 1 h at RT. After washing in TBS-T, membranes were imaged using the Odyssey CLx (LI-COR). Band intensities were quantified using Image Studio Lite software version 5.2.5 (LI-COR).

[2] = test system: CT26 colorectal cancer cells; assay: qRT-PCR, combination with cGAMP, CT26 cells; format: cell-based, Mouse; details: 24 hours, 5 μM Compound 1 or 10 μM Compound 2, 10 mg/mL cGAMP
Experimental: (§1) CT26 cells were treated for 24 hours with DMSO or VPS34 inhibitors (5 μM Compound 1 or 10 μM Compound 2) in combination with 10 mg/mL STING agonist cGAMP (green bars). Cells were washed with PBS and RNA was isolated using the PureLink RNA kit (#12183018A, Thermo Fisher Scientific) according to the manufacturer's protocol. Genomic DNA was removed using DNA-binding columns (RNeasy plus kit, #74134, Qiagen) and/or DNase treatment (#12185010, Thermo Fisher Scientific). RNA was quantified using NanoDrop (Thermo Fisher Scientific) and 50 ng/μL RNA was used for cDNA synthesis with SuperScript IV VILO Master Mix (#11756050, Thermo Fisher Scientific). Quantitative RT-PCR (qRT-PCR) was run with diluted cDNA (1:25 or 1:12.5), PowerUp SYBR Green Master Mix (#A25741, Thermo Fisher Scientific), and 200 nM primers (see below) on a CFX Connect RT-PCR system (BioRad). Data was analyzed using the ΔΔCT method. Results are mean±SEM of three independent experiments.

Me30966 melanoma cells = assay: qRT-PCR with siSTING, Me30966 cells; format: cell-based, Human; details: 2 μM, 24 h; for increase in CCL5 mRNA expression / increase in CXCL10 mRNA expression / increase in IFNB1 mRNA expression: siSCR
Experimental: Me30966 cells were transfected with siSCR or siSTING. After 48 h, cells were treated with DMSO or 2 μM of VPS34 inhibitors (Compound 1 or Compound 2) for 24 h. Cells were washed with PBS and RNA was isolated using the PureLink RNA kit (#12183018A, Thermo Fisher Scientific) according to the manufacturer's protocol. Genomic DNA was removed using DNA-binding columns (RNeasy plus kit, #74134, Qiagen) and/or DNase treatment (#12185010, Thermo Fisher Scientific). RNA was quantified using NanoDrop (Thermo Fisher Scientific) and 50 ng/μL RNA was used for cDNA synthesis with SuperScript IV VILO Master Mix (#11756050, Thermo Fisher Scientific). Quantitative RT-PCR (qRT-PCR) was run with diluted cDNA (1:25 or 1:12.5), PowerUp SYBR Green Master Mix (#A25741, Thermo Fisher Scientific), and 200 nM primers (see below) on a CFX Connect RT-PCR system (BioRad). Data was analyzed using the ΔΔCT method. Results are mean±SEM of three independent experiments.

4T1 breast cancer cells = assay: qRT-PCR, combination with cGAMP, 4T1 cells; format: cell-based, Mouse; details: 24 hours, 5 μM Compound 1 or 10 μM Compound 2, 10 mg/ml cGAMP
Experimental: as §1, with “4T1” for “CT26”, “mg/ml” for “mg/mL”

[3] = test system: 786-O renal cell carcinoma cells; assay: qRT-PCR with siRNA knockdown of STING pathway genes, 786-O cells; format: cell-based, Human; details: 24 h, vs compound alone; for IFNB1, CCL5 and CXCL10 expression with siRNA knockdown of CGAS / IRF7 expression with siRNA knockdown of CGAS: siCGAS; for IFNB1, CCL5 and CXCL10 expression with siRNA knockdown of CGAS / IRF7 expression with siRNA knockdown of CGAS / IFNB1, CCL5 and CXCL10 expression with siRNA knockdown of STING / IRF7 expression with siRNA knockdown of STING: 2 μM; for IFNB1, CCL5 and CXCL10 expression with siRNA knockdown of STING / IRF7 expression with siRNA knockdown of STING: siSTING; for IFNB1 expression with siRNA knockdown of TBK1 / IRF7, CCL5 and CXCL10 expression with siRNA knockdown of TBK1: siTBK1, 2 μM

SMILES | CGAS level [1] | STING level [1] | p-IRF3 level [1] | p-STAT1 level [1] | p-TKB1 level [1] | p-IRF3 and p-STAT1 levels with siRNA knockdown of CGAS [1] | p-TKB1 level with siRNA knockdown of CGAS [1] | p-IRF3 and p-STAT1 levels with siRNA knockdown of STING [1] | p-TBK1 level with siRNA knockdown of STING [1] | STING level with siRNA knockdown of TBK1 [1] | CGAS level with siRNA knockdown of TBK1 [1] | CCL5 mRNA expression [2] | CXCL10 mRNA expression [2] | increase in CCL5 mRNA expression (Me30966 melanoma cells) [fold] | increase in CXCL10 mRNA expression (Me30966 melanoma cells) [fold] | increase in IFNB1 mRNA expression (Me30966 melanoma cells) [fold] | CCL5 mRNA increase with siSTING (Me30966 melanoma cells) | CXCL10 mRNA increase with siSTING (Me30966 melanoma cells) | IFNB1 mRNA increase with siSTING (Me30966 melanoma cells) | CCL5 mRNA expression (4T1 breast cancer cells) | other results
C[C@@H]1COCCN1c1cc(N2CCCC[C@@H]2C(F)(F)F)[nH]c(=O)c1 [Compound 1, 4-((R)-3-methylmorpholino)-6-((R)-2-(trifluoromethyl)piperidin-1-yl)pyridin-2(1H)-one] | mild increase | increase | strong increases | strong increases | increase | complete loss | decrease | complete loss | decrease | increase | increase | increased | increased | ~10 | ~10 | ~5 | abolished | abolished | abolished | increased | CXCL10 mRNA expression (4T1 breast cancer cells): increased; IFNB1, CCL5 and CXCL10 expression with siRNA knockdown of CGAS [3]: complete ablation; IRF7 expression with siRNA knockdown of CGAS [3]: significant decreases; IFNB1, CCL5 and CXCL10 expression with siRNA knockdown of STING [3]: complete ablation; IRF7 expression with siRNA knockdown of STING [3]: significant decreases; IFNB1 expression with siRNA knockdown of TBK1 [3]: near complete ablation; IRF7, CCL5 and CXCL10 expression with siRNA knockdown of TBK1 [3]: modest decreases
C[C@@H]1COCCN1c1cc(=O)n2c(n1)N(Cc1cncc(Cl)c1)[C@H](C(F)(F)F)CC2 [Compound 2, (S)-9-((5-chloropyridin-3-yl)methyl)-2-((R)-3-methylmorpholino)-8-(trifluoromethyl)-6,7,8,9-tetrahydro-4H-pyrimido[1,2-a]pyrimidin-4-one] | mild increase | increase | strong increases | strong increases | increase | complete loss | decrease | complete loss | decrease | increase | increase | increased | increased | ~10 | ~10 | ~5 | abolished | abolished | abolished | increased | CXCL10 mRNA expression (4T1 breast cancer cells): increased; IFNB1, CCL5 and CXCL10 expression with siRNA knockdown of CGAS [3]: complete ablation; IRF7 expression with siRNA knockdown of CGAS [3]: significant decreases; IFNB1, CCL5 and CXCL10 expression with siRNA knockdown of STING [3]: complete ablation; IRF7 expression with siRNA knockdown of STING [3]: significant decreases; IFNB1 expression with siRNA knockdown of TBK1 [3]: near complete ablation; IRF7, CCL5 and CXCL10 expression with siRNA knockdown of TBK1 [3]: modest decreases
